“Also recorded” adds a separate entry of the source.
Columns and labels:
Format in all cases: cell-based
lung DCs = assay: Activation of murine lung DCs: phagocytosis of Aspergillus conidia, costimulatory antigen expression, cytokine production
Procedure: For mature PDCs, immature DCs were cultured with the trimeric human CD40 ligand as above and 10 ng/ml IL-3. […] The expression of HLA Class II, CD80 and CD86 was high in both immature and mature DCs. Murine lung CD 11c^+ DCs (between 5 to 7% positive for CD8alpha and between 30 to 35% positive for Gr-1) were isolated by magnetic cell sorting. For phagocytosis, DCs were pre-exposed to 100 ng/ml TA1 for 60 minutes and subsequently incubated at 37° C. with Aspergillus conidia for an additional 60 minutes. The percentage of internalization was calculated and photographs were taken. In assessing functional maturation and cytokine determination, purified DCs were resuspended in Iscove's medium (with no serum but with polymixin B, to avoid non-specific activation by serum components and endotoxin) and pulsed with 100 ng/ml TA1 for 24 hours either alone or together with TLR ligands or unopsonized Aspergillus conidia. Cell surface phenotype was assessed by reacting samples with FITC- or PE-conjugated rat anti-mouse antibodies. Unrelated hisotype matched antibodies were used as control. The levels of TNF-alpha, IL-10, IL-12 p70, IFN-alpha and IL-8 in culture supernatants were determined by Kit ELISAs. The detection limits (pg/ml) of the assays were <3 (human) and <32 (murine) for TNF-alpha, <12 (murine) and <5 (human) for IL-10, <16 (murine) and <3 (human) for IL-12 p70 and <25 (human) IL-8. For human IFN-alpha <3 ng/ml. For enumeration of cytokine-producing cells, an ELISPOT assay was used on purified CD4^+ T cells and DCs from lungs.

human TLR9 = target: T1, human TLR9 (Homo sapiens, UniProt Q9NR96); assay: IL-8 production by TLR9-transfected HEK293 cells
T1 construct: expressed in transfected cells; host or cells: HEK293
T1 sequence (Q9NR96 26-1032): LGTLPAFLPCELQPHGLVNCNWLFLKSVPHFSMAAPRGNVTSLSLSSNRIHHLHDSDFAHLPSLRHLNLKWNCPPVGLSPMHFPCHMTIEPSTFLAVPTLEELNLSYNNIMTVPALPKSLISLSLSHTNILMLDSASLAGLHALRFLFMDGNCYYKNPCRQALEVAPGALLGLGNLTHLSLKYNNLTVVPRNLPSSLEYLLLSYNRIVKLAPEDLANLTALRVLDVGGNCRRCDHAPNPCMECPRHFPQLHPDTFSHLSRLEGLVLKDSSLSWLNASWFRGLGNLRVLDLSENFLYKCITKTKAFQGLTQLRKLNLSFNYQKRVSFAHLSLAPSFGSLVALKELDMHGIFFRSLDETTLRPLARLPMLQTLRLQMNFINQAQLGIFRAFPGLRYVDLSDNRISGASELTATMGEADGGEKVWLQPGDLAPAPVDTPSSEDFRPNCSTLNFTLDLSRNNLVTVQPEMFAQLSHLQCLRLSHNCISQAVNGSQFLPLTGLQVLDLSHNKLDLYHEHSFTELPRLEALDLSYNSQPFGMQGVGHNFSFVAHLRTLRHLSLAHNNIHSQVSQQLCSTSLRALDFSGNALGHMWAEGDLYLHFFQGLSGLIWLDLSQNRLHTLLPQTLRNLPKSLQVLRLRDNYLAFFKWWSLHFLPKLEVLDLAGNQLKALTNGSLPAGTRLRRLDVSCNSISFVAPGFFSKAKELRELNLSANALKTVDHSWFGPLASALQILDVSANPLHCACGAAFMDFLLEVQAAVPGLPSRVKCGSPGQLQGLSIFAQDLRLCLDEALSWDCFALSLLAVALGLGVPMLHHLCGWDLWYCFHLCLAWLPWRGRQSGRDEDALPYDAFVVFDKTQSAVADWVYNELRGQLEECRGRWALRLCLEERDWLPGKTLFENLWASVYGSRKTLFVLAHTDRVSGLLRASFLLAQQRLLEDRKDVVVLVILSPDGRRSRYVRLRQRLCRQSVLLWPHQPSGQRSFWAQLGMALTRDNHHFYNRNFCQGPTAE
Procedure: (§1) The human embryonic kidney cell line HEK293, wild type or stably transfected with human TLR2, TLR9 and TLR4/CD1427 were cultured in low glucose Dulbecco's modified Eagle's medium supplemented with 10% FCS, HEPES ([…]), L-glutamine ([…]), and gentamycin (50 microgram/ml). Transfectants were additionally supplemented with puromycin (100 microgram/ml). For stimulation experiments, cells were cultured at a density of 3 to 5×10^5 cells/wells in 12-well tissue culture plates overnight. Cells were washed and stimulated with 100 ng/ml TA1 either alone or together with TLR ligands for 5 h before the assessment of IL-8 production in the supernatants.
(§2) The levels of TNF-alpha, IL-10, IL-12 p70, IFN-alpha and IL-8 in culture supernatants were determined by Kit ELISAs. The detection limits (pg/ml) of the assays were <3 (human) and <32 (murine) for TNF-alpha, <12 (murine) and <5 (human) for IL-10, <16 (murine) and <3 (human) for IL-12 p70 and <25 (human) IL-8. For human IFN-alpha <3 ng/ml. For enumeration of cytokine-producing cells, an ELISPOT assay was used on purified CD4^+ T cells and DCs from lungs.

human TLR2 = target: T2, human TLR2 (Homo sapiens, UniProt O60603); assay: IL-8 production by TLR2-transfected HEK293 cells
T2 construct: expressed in transfected cells; host or cells: HEK293
T2 sequence (O60603 21-784): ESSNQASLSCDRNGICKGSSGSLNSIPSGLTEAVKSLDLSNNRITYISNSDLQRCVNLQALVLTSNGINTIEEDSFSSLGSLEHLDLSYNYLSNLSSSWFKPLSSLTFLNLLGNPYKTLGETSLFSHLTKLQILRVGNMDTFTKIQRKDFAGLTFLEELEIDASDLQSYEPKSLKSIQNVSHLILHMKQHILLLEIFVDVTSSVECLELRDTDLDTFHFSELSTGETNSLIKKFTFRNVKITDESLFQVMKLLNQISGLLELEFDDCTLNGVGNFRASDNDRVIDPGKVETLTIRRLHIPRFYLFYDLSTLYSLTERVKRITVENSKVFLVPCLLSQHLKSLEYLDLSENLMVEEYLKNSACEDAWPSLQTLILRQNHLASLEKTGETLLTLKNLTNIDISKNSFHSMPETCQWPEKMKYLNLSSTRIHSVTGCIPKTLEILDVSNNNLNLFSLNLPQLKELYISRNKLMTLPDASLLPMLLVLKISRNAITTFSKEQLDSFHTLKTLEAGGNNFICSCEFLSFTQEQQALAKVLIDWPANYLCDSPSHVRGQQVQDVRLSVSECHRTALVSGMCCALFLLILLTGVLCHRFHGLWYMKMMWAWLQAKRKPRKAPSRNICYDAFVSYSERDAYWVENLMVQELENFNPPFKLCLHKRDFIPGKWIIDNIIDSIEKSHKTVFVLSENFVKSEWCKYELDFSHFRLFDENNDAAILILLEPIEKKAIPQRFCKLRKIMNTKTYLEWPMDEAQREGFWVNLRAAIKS
Procedure: as §1, §2

[1] = combined exposure to Aspergillus conidia and TA1

Ac-Ser-Asp-Ala-Ala-Val-Asp-Thr-Ser-Ser-Glu-Ile-Thr-Thr-Lys-Asp-Leu-Lys-Glu-Lys-Lys-Glu-Val-Glu-Glu-Ala-Glu-Asn-O (Ac-SDAAVDTSSEITTKDLKEKKEVEEAEN-OH) [TA1, naturally occurring thymic peptide]
activation of lung DCs for phagocytosis of unopsonized conidia, costimulatory antigen expression and cytokine production (lung DCs; 100 ng/ml): activates | expression of MHC Class II antigens, CD86 and CD40 molecules (lung DCs; [1]): remarkably increased | frequency of IL-12 p70-producing DCs (lung DCs; [1]): remarkably increased | frequency of IL-12 p70-producing DCs (lung DCs; thymosin alone): also increased | production of IL-8 (human TLR9; TA1 alone, 100 ng/ml, 5 h): directly activate; also recorded: significantly increased | production of IL-8 (human TLR9; in response to the TLR9 ligand CpG): significantly increased | production of IL-8 (human TLR2; TA1 alone): did not stimulate | production of IL-8 (human TLR2; in response to zymosan): potentiated; also recorded: slightly increased
